Among the data in patent US7595345B2, “Vitamin D receptor modulators” (Eli Lilly and Company, priority 2003, dated 2009) are EC50 and IC50 values, retold here.

Type in all cases: cell-based
For one experiment, the target named is T1, VDR (pGal4-VDR-LBD) (Homo sapiens, UniProt P11473).
T1 construct: the receptor expression vector pGal4-VDR-LBD (10 ng); expressed in transfected cells; host or cells: Caco-2 cells
T1 sequence (P11473 127-423 limits assumed): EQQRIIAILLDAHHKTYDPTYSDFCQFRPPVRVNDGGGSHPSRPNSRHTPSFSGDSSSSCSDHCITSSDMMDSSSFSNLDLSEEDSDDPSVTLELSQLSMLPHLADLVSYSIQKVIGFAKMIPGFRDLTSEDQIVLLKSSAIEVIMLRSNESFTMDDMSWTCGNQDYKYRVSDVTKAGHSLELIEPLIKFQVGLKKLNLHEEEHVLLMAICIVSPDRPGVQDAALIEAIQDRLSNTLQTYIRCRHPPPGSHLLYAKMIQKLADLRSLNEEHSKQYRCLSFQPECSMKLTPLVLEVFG
Kind of experiment: VDR CTF (Caco-2 cell co-transfection assay). As to conditions: Caco-2 cells, Gal4-responsive reporter pFRLuc; surrogate for calcemic activity. The protocol: 2. The Caco-2 Cell Co-Transfection Assay:
The Caco-2 cell assay is an indicator for the undesirable condition of hypercalcemia. This co-transfection assay is a surrogate assay for in vivo calcemic activity of VDR ligands. […] Preferred assay results are greater than 1000 nM.
(2) Materials and Method for the Caco-2 Cell Assay:
Caco-2 cells, grown in phenol red free, DMEM (Invitrogen, Carlsbad, Calif.) containing 10% charcoal-stripped FCS (Hyclone, Logan, Utah), were transfected with Fugene 6 reagent (Roche Diagnostics, Indianapolis, Ind.). Cells (5000/well) were plated 18 h before transfection in a 96 well plate. The Cells were transfected with Gal4-responsive reporter pFRLuc (150 ng, Stratagene, La Jolla Calif.) and the receptor expression vector pGal4-VDR-LBD (10 ng), along with Fugene 6 reagent (0.2 μl/well). The DNA-Fugene complex was formed by incubating the mixture for 30 min at room temperature. The cells were transfected in triplicate for 5 h, and treated with various concentrations of VDR ligands (form 0.01 nM to 10,000 nM concentration range) 18 h post-transfection. The luciferase activity was quantified using Steady-Glo reagent kit (Promega, Madison, Wis.) as per manufacturer's specifications.

For another experiment, the system named is rat osteocalcin promoter. In words: OCN (osteocalcin) promoter assay. As to conditions: RG-15 (ROS 17/2.8) cells, 48 hr treatment, luciferase. The protocol:
3. The OCN (Osteocalcin) Promoter Assay
The OCN Promoter Assay is an indicator and marker for osteoporosis. Desired assay results are EC50 less than or equal to […]. Preferred assay results are less than […].
(3) Materials and Method for the OCN Promoter Assay:
The activation of osteocalcin by VDR ligands was evaluated in a rat osteoblast-like cell line RG-15 (ROS 17/2.8) stably expressing rat osteocalcin promoter fused with luciferase reporter gene. The stable cell lines were established as reported before (Activation of Osteocalcin Transcription involves interaction of protein kinase A- and Protein kinase C-dependent pathways. Boguslawski, G., Hale, L. V., Yu, X.-P., Miles, R. R., Onyia, J. E., Santerre R. F., Chandrasekhar, S. J. Biol. Chem. 275, 999-1006, 2000). Confluent RG-15 cells maintained in DMEM/F-12 medium (3:1) containing 5% FBS, 300 µg/ml G418 and at 37° C. under 5% CO2/95% air atmosphere were trypsinized (0.25% trypsin) and plated into white opaque 96-well cell culture plates (25000 cells/well). After 24 hr, cells (in DMEM/F-12 medium+2% FBS) were treated with various concentrations of compounds, dissolved in DMSO. The final DMSO concentration remained at 0.01% (v/v). After 48 hr treatment, the medium was removed, cells were lysed with 50 µl of lysis buffer (From Luciferase reporter assay system, Roche Diagnostics, Indianapolis, Ind.) and assayed for luciferase activity using the Luciferase Reporter Gene Assay kit from Boehringer Mannheim as per manufacturer's specifications.

The subject of experiment [1] is IL-10 production in PBMCs. In words: Human IL-10 induction assay. As to conditions: PBMC; TPA/PHA treated human PBMCs, IL-10 in supernatant by immunoassay. The text has this: 6. The IL-10 Induction Assay
This is an in vitro efficacy assay for psoriasis, abscess and adhesion. Psoriasis involves both keratinocytes and immune cells. IL-10 is a unique cytokine because it is anti-inflammatory and immunosuppressive. This assay tells us whether a VDRM is able to function as an agonist in PBMCs (primary blood mononuclear cells) or not. A lower EC50 value is desirable in this assay since a compound with a lower EC50 value will be a better agonist in PBMCs. […] 7. Other Compound Assay Standards An alternative measure of the efficacy of compounds of the invention for treatment of osteoporosis is a numerical ratio calculated as follows: • Dose Threshold needed to induce hypercalcemia • divided by • Dose Threshold needed for bone efficacy An alternative measure of the efficacy of compounds of the invention for treatment of psoriasis is a numerical ratio calculated as follows: • Dose Threshold needed to induce hypercalcemia • divided by • Dose Threshold needed to induce keratinocyte proliferation For the above ratios, Dose Thresholds are determined from dose response curve data. 8. The CaT1 (Calcium Transport Protein 1) Assay The CaT1 Assay is an indicator for the undesirable condition of hypercalcemia. The higher the EC50 values for a compound the less calcemic it will be in vivo. […] Preferred assay results are greater than 1000 nM. Details of the Assay Methods: (1) Materials and Method for RXR-VDR Heterodimerization Assay: Transfection Method:
(6) Materials and Method for Human IL-10 Induction Assay:
Isolation of peripheral blood mononuclear cells (PBMCs): • A. Collect 50 ml of human blood and dilute with media, RPMI-1640. • B. Prepare sterile tubes with ficol. • C. Add diluted blood to tubes. • D. Centrifuge. • E. Discard the top layer and collect the cells from middle layer. • F. Divide all cells into four tubes and add media. • G. Centrifuge. • H. Aspirate off media and resuspend. • I. Collect all cells • J. Centrifuge. at 1200 rpm for 10 minutes. • K. Resuspend in RPMI-1640 with 2% FBS and count cells
Stimulation of PBMC: • L. Prepare TPA in DMSO. • M. Dissolve PHA in water. • N. Plate TPA/PHA treated PBMCs in well plates. • O. Incubate.
Treatment: • P. Prepare all compound dilutions in plain RPMI-1640 media. • Q. Add diluted compound. • R. Incubate.
Sample Collection and Assay: • S. Remove all the cells by centrifugation and assay the supernatant for IL-10 by immunoassay. • 1) T. Perform IL-10 assay using anti-human IL-10 antibody coated beads, as described by the manufacturer (Linco Research Inc., St. Charles, Mo.).

For the molecule `CCC(O)(CC)COc1ccc(C(CC)(CC)c2ccc(C(=O)NCC(=O)O)c(C)c2)cc1C` [Ex. 3, (4-{1-ethyl-1-[4-(2-ethyl-2-hydroxy-butoxy)-3-methyl-phenyl]-propyl}-2-methyl-benzoylamino)-acetic acid], the concentration giving a half-maximal response (EC50) was 819 nM on VDR (pGal4-VDR-LBD); 19.7 nM in the experiment on rat osteocalcin promoter; 16.8 nM with rat osteocalcin promoter (Rattus norvegicus, 48 h). Further, the IC50 in experiment [1] came out at 718 nM.
For `CCC(CC)(c1ccc(OCC(O)(C(C)C)C(C)C)c(C)c1)c1ccc(C(=O)NCC(=O)O)c(C)c1` [Ex. 4, (4-{1-Ethyl-1-[4-(2-hydroxy-2-isopropyl-3-methyl-butoxy)-3-methyl-phenyl]-propyl}-2-methyl-benzoylamino)-acetic acid], the EC50 on VDR (pGal4-VDR-LBD) is 974 nM; in the experiment with rat osteocalcin promoter it was 27.7 nM; in the experiment with rat osteocalcin promoter (Rattus norvegicus, 48 h), 21 nM. The IC50 in experiment [1] came to 477 nM.
